Consider four cell lines from the supplement of paper PMC10307832.

What all share (test): relative viability (nuclei count vs DMSO), 5 days (fraction); higher = more cells survive
Compound in the assay “KN-93 + Linsitinib”: CN(C/C=C/C1=CC=C(C=C1)Cl)CC2=CC=CC=C2N(CCO)S(=O)(=O)C3=CC=C(C=C3)OC [KN-93] + C[C@]1(O)C[C@@H](c2nc(-c3ccc4ccc(-c5ccccc5)nc4c3)c3c(N)nccn32)C1 [Linsitinib] (partner 1 µM)
An outline of the steps: (§1)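 A single step with final 0.05% Triton X-100, 1% formaldehyde and 1 ug/ml Hoechst fixed the cells and stained nuclei 5 days after treatment. Lung cancer cell lines in 1536-well plates had been treated by pin tool the day after seeding with one drug alone or a fixed anchor-drug dose plus five library-drug doses (not always all listed) in √10 steps, and nuclei were counted on 4× images. Relative viability is the ratio of nuclei in treated wells to nuclei in vehicle wells, taken as the median of duplicate plates.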

Compound in the assay “KN-93 + Pictilisib”: CN(C/C=C/C1=CC=C(C=C1)Cl)CC2=CC=CC=C2N(CCO)S(=O)(=O)C3=CC=C(C=C3)OC [KN-93] + CS(=O)(=O)N1CCN(Cc2cc3nc(-c4cccc5[nH]ncc45)nc(N4CCOCC4)c3s2)CC1 [Pictilisib] (partner 1 µM)
The method, boiled down:
as §1

Compound in the assay “KN-93 + Crizotinib”: CN(C/C=C/C1=CC=C(C=C1)Cl)CC2=CC=CC=C2N(CCO)S(=O)(=O)C3=CC=C(C=C3)OC [KN-93] + C[C@@H](Oc1cc(-c2cnn(C3CCNCC3)c2)cnc1N)c1c(Cl)ccc(F)c1Cl [Crizotinib] (partner 1 µM)
An outline of the steps:
as §1

Compound in the assay “KN-93 + Luminespib”: CN(C/C=C/C1=CC=C(C=C1)Cl)CC2=CC=CC=C2N(CCO)S(=O)(=O)C3=CC=C(C=C3)OC [KN-93] + CCNC(=O)c1noc(-c2cc(C(C)C)c(O)cc2O)c1-c1ccc(CN2CCOCC2)cc1 [Luminespib] (partner 0.01 µM)
An outline of the steps:
as §1

Compound in the assay “KN-93 + Phenformin”: CN(C/C=C/C1=CC=C(C=C1)Cl)CC2=CC=CC=C2N(CCO)S(=O)(=O)C3=CC=C(C=C3)OC [KN-93] + N=C(N)NC(=N)NCCc1ccccc1 [Phenformin] (partner 250 µM)
The method, boiled down: as §1

With EKVX, the relative viability with KN-93 + Linsitinib (first compound 0.08 µM) is 0.959; with KN-93 + Linsitinib (first compound 0.253 µM), 0.872; in the assay with KN-93 + Linsitinib (first compound 2.53 µM) it was 1.03; in the assay with KN-93 + Linsitinib (first compound 8 µM), 0.748; in the assay with KN-93 + Pictilisib (first compound 0.08 µM) it was 0.396; with KN-93 + Pictilisib (first compound 0.253 µM), 0.329. Further, the relative viability with KN-93 + Pictilisib (first compound 2.53 µM) is 0.437; in the assay with KN-93 + Pictilisib (first compound 8 µM) it was 0.39; in the assay with KN-93 + Crizotinib (first compound 0.08 µM) it was 0.642; in the assay with KN-93 + Crizotinib (first compound 0.253 µM) it was 0.995; with KN-93 + Crizotinib (first compound 2.53 µM) it was 0.81; with KN-93 + Crizotinib (first compound 8 µM), 0.719. Moreover, the relative viability came out at 0.998 with KN-93 + Luminespib (first compound 0.08 µM); 0.977 in the assay with KN-93 + Luminespib (first compound 0.253 µM); 0.895 with KN-93 + Luminespib (first compound 2.53 µM); 0.714 with KN-93 + Luminespib (first compound 8 µM); 0.23 with KN-93 + Phenformin (first compound 0.08 µM); 0.224 with KN-93 + Phenformin (first compound 0.253 µM). The results for the relative viability in the assay with KN-93 + Phenformin (first compound 2.53 µM) and with KN-93 + Phenformin (first compound 8 µM) were 0.239 and 0.203, respectively.
With NCI-H838, the relative viability with KN-93 + Linsitinib (first compound 0.08 µM) was determined as 0.989; with KN-93 + Linsitinib (first compound 0.253 µM), 0.905; in the assay with KN-93 + Linsitinib (first compound 2.53 µM), 1.15; in the assay with KN-93 + Linsitinib (first compound 8 µM), 0.771; in the assay with KN-93 + Pictilisib (first compound 0.08 µM) it was 0.556; with KN-93 + Pictilisib (first compound 0.253 µM) it was 0.378. Further, the relative viability was determined as 0.391 with KN-93 + Pictilisib (first compound 2.53 µM); 0.362 with KN-93 + Pictilisib (first compound 8 µM); 0.764 with KN-93 + Crizotinib (first compound 0.08 µM); 0.86 in the assay with KN-93 + Crizotinib (first compound 0.253 µM); 0.94 with KN-93 + Crizotinib (first compound 2.53 µM); 0.7 with KN-93 + Crizotinib (first compound 8 µM). Besides, the relative viability came to 0.306 with KN-93 + Luminespib (first compound 0.08 µM); 0.268 with KN-93 + Luminespib (first compound 0.253 µM); 0.197 with KN-93 + Luminespib (first compound 2.53 µM); 0.223 in the assay with KN-93 + Luminespib (first compound 8 µM); 0.648 in the assay with KN-93 + Phenformin (first compound 0.08 µM); 0.565 in the assay with KN-93 + Phenformin (first compound 0.253 µM). Also, the relative viability in the assay with KN-93 + Phenformin (first compound 2.53 µM) is 0.596; in the assay with KN-93 + Phenformin (first compound 8 µM), 0.547.
Consider NCI-H647, for which the relative viability was determined as 1.33 with KN-93 + Linsitinib (first compound 0.08 µM); 1.5 with KN-93 + Linsitinib (first compound 0.253 µM); 1.65 with KN-93 + Linsitinib (first compound 2.53 µM); 0.952 with KN-93 + Linsitinib (first compound 8 µM); 0.493 with KN-93 + Pictilisib (first compound 0.08 µM); 0.327 with KN-93 + Pictilisib (first compound 0.253 µM). Also, the relative viability in the assay with KN-93 + Pictilisib (first compound 2.53 µM) came to 0.462; with KN-93 + Pictilisib (first compound 8 µM) it was 0.336; with KN-93 + Crizotinib (first compound 0.08 µM), 0.916; with KN-93 + Crizotinib (first compound 0.253 µM), 1.48; in the assay with KN-93 + Crizotinib (first compound 2.53 µM), 1.13; with KN-93 + Crizotinib (first compound 8 µM), 0.511. Besides, the relative viability turned out to be 0.168 in the assay with KN-93 + Luminespib (first compound 0.08 µM); 0.145 in the assay with KN-93 + Luminespib (first compound 0.253 µM); 0.13 in the assay with KN-93 + Luminespib (first compound 2.53 µM); 0.109 in the assay with KN-93 + Luminespib (first compound 8 µM); 0.696 with KN-93 + Phenformin (first compound 0.08 µM); 0.552 with KN-93 + Phenformin (first compound 0.253 µM). The relative viability in the assay with KN-93 + Phenformin (first compound 2.53 µM) worked out at 0.643; with KN-93 + Phenformin (first compound 8 µM) it was 0.484.
With NCI-H1651, the relative viability turned out to be 0.816 with KN-93 + Linsitinib (first compound 0.08 µM); 1.33 with KN-93 + Linsitinib (first compound 0.253 µM); 1.11 with KN-93 + Linsitinib (first compound 2.53 µM); 0.622 in the assay with KN-93 + Linsitinib (first compound 8 µM); 0.45 with KN-93 + Pictilisib (first compound 0.08 µM); 0.658 with KN-93 + Pictilisib (first compound 0.253 µM). Further, the relative viability with KN-93 + Pictilisib (first compound 2.53 µM) is 0.532; with KN-93 + Pictilisib (first compound 8 µM), 0.477; in the assay with KN-93 + Crizotinib (first compound 0.08 µM) it was 0.846; with KN-93 + Crizotinib (first compound 0.253 µM), 0.959; with KN-93 + Crizotinib (first compound 2.53 µM) it was 0.9; in the assay with KN-93 + Crizotinib (first compound 8 µM), 0.732. The relative viability with KN-93 + Luminespib (first compound 0.08 µM) amounted to 0.757; with KN-93 + Luminespib (first compound 0.253 µM), 0.829; in the assay with KN-93 + Luminespib (first compound 2.53 µM) it was 0.757; in the assay with KN-93 + Luminespib (first compound 8 µM), 0.546; with KN-93 + Phenformin (first compound 0.08 µM) it was 0.369; in the assay with KN-93 + Phenformin (first compound 0.253 µM), 0.44. Besides, the figures for the relative viability with KN-93 + Phenformin (first compound 2.53 µM) and with KN-93 + Phenformin (first compound 8 µM) were 0.369 and 0.321, respectively.
